One series deals with Oncorhynchus mykiss. As to conditions: acute; duration: 96 hours; mortality.
The subject of a further series is Daphnia magna. As to conditions: chronic/long-term; duration: 21 days; reproduction.
In a further series the test system is Typhlodromus pyri. As to conditions: acute.
Another series concerns Coturnix japonica. As to conditions: acute, oral, mortality.
For the next series, the system named is Canidae. As to conditions: chronic; duration: 1 years; oral; M/F; Dog Other; histopathology: nonneoplastic.
Another series has as its system Tagia sp. As to conditions: acute; duration: 14 days; mortality.
The next series relates to Apis mellifera. As to conditions: acute; duration: 48 hours; oral; unspecified; mortality.
For the next series, the system named is Colinus virginianus. As to conditions: reproduction developmental.

Values after ≈ are worked out from the molar mass of the structure shown.

One may read the NOAEL as the highest tested level that showed no adverse finding. Regarding `c1coc(-c2nc3ccccc3[nH]2)c1` [Fuberidazole], the LC50 was 0.91 µg/mL (≈ 4.94 µM) in the series with Oncorhynchus mykiss, above 930 mg/kg-day with Coturnix japonica (diet) and above 1000 mg/kg in the series with Tagia sp.. Also, the NOEC with Daphnia magna was 0.12 mg/L; in the series on Colinus virginianus it was above 76.9 mg/kg-day. Further, the LEL with Typhlodromus pyri (duration: 7 days, mortality) is 26 g/ha; in the series on Typhlodromus pyri (duration: 14 days, reproduction) it was 26 g/ha. Moreover, the LD50 with Coturnix japonica was above 750 mg/kg; with Apis mellifera it was above 187 µg/piece; in the series with Rattus norvegicus (acute, mortality), above 300 mg/kg. Also, the NOAEL in the series on Canidae was 0.72 mg/kg-day; with Rattus norvegicus (developmental, development), 8 mg/kg-day; in the series with Rattus norvegicus (reproduction developmental, mortality), 4 mg/kg-day.
